For test [1], the system named is M2-10B4 mouse marrow stromal cell line. The test is described as follows: Matrix mineralization in M2 cells (von Kossa staining, 45Ca incorporation assay). The class given is cell-based. Here is the method: Cells: M2-10B4 mouse marrow stromal cell line obtained from American Type Culture Collection (ATCC, Rockville, Md., U.S.A.) was derived from bone marrow stromal cells of a (C57BL/6J×C3H/HeJ) F1 mouse, and support human and murine myelopoiesis in long-term cultures (as per ATCC) and have the ability to differentiate into osteoblastic and adipocytic cells. Unless specified, these cells were cultured in RPMI 1640 containing 10% heat-inactivated FBS, and supplemented with 1 mM sodium pyruvate, 100 U/ml penicillin, and 100 […] (all from Irvine Scientific).
Von Kossa and oil red O staining—Matrix mineralization in cell monolayers was detected by silver nitrate staining as previously described. Oil red O staining for detection of adipocytes was performed as previously described.
^45Ca incorporation assay—Matrix mineralization in cell monolayers was quantified using the ^45Ca incorporation assay as previously described.
M2 cells at confluence were treated in osteogenic medium with control vehicle or 5 μM oxysterols, alone or in combination as indicated. After 14 days, mineralization was identified by a von Kossa staining, which appears black. FIG. 3C is a depiction of von Kossa staining of M2 cells exposed to various conditions.
M2 cells were treated with control vehicle (C) or a combination of 22R and 20S oxysterols at increasing concentrations. After 14 days, matrix mineralization in cultures was quantified using a ^45Ca incorporation assay. […] FIG. 3D is a bar graph depicting the effect of a combination of oxysterols at various doses on calcium incorporation in M2 cells.
Next, a combination of 22R and 20S oxysterols (RS, 2.5 μM each) were added in the presence or absence of SC as indicated. After 3 days, ALP activity was measured as described earlier. […] (B) M2 cells were treated as described in (A) and after 10 days matrix mineralization in cultures was quantified by a ^45Ca incorporation assay as described earlier. Results from a representative of three experiments are shown, reported as the mean±SD of quadruplicate determinations, normalized to protein concentration. (C) M2 cells were pretreated with 20 μM SC for 4 hours, followed by the addition of RS in the presence or absence of SC as described above. After 8 days, total RNA was isolated and analyzed for osteocalcin (Osc) and 18S rRNA expression by Northern blotting as previously described. Data from densitometric analysis of the Northern blot is shown in (D) as the average of duplicate samples, normalized to 18S rRNA. (E) M2 cells at confluence were pretreated for 2 hours with control vehicle (C), or PLA2 inhibitors ACA (25 μM) and AACOCF3 (AAC, 20 μM), in osteogenic medium. Next, a combination of 22R and 20S oxysterols (RS, 2.5 μM) was added in the presence or absence of the inhibitors as indicated. After 3 days, ALP activity was measured as previously described. Data from a representative of three experiments are shown, reported as the mean±SD of quadruplicate determinations, normalized to protein concentration (p<0.01 for RS vs. RS+ACA and RS+AAC). (F) M2 cells were treated as described in (E). After 10 days, matrix minerliazation in cultures was quantified using a ^45Ca incorporation assay as previously described. Results from a representative of three experiments are shown, reported as the mean of quadruplicate determinations±SD, normalized to protein concentration (p<0.01 for RS vs. RS+ACA and RS+AAC).
(A) M2 cells at confluence were pretreated for four hours with RPMI containing 1% FBS, followed by treatment with control vehicle or 5 μM 20S oxysterol for 1, 4, or 8 hours. Next total cell extracts were prepared and analyzed for levels of native or phosphorylated ERK (pERK) using specific antibodies as previously described.

The test system of test [2] is osteocalcin mRNA. The test can be described thus: Northern blot for osteocalcin mRNA in M2 cells. The format is cell-based, mouse. Here is the method: RNA isolation and Northern blot analysis—Following treatment of cells under appropriate experimental conditions, total RNA was isolated using the RNA isolation kit from Stratagene (La Jolla, Calif., U.S.A.). Total RNA ([…]) was run on a 1% agarose/formaldehyde gel and transferred to Duralon-UV membranes (Strategene, Calif., U.S.A.) and cross-linked with UV light. The membranes were hybridized overnight at 60 degree C. with ^32P-labeled mouse osteocalcin cDNA probe, mouse lipoprotein lipase (LPL), mouse adipocyte protein 2 (aP2) PCR-generated probes, human 28S or 18S rRNA probes obtained from Geneka Biotechnology (Montreal, Quebec, Canada) and Maxim Biotech (San Francisco, Calif., U.S.A.), respectively. […] Following hybridization, the blots were washed twice at room temperature with 2×SSC+0.1% SDS, and then twice at 60 degree C. with 0.5×SSC+0.1% SDS, and exposed to X-ray film. The extent of gene induction was determined by densitometry.
After 4 and 8 days, total RNA from duplicate samples was isolated and analyzed for osteocalcin (Osc) and 28S rRNA expression by Northern blotting as described. FIG. 3E is a radiogram of Northern blotting for osteocalcin mRNA in M2 cells exposed to a control or combination of oxysterols for 4 or 8 days. FIG. 3F is a bar graph depicting the relative demsometric units of osteocalcin mRNA in M2 cells exposed to a control or combination of oxysterols for 4 or 8 days. Data from densitometric analysis of the Northern blot is shown in (F) as the average of duplicate samples, normalized to 28S rRNA.
Next, a combination of 22R and 20S oxysterols (RS, 2.5 μM each) were added in the presence or absence of SC as indicated. After 3 days, ALP activity was measured as described earlier. […] (B) M2 cells were treated as described in (A) and after 10 days matrix mineralization in cultures was quantified by a ^45Ca incorporation assay as described earlier. Results from a representative of three experiments are shown, reported as the mean±SD of quadruplicate determinations, normalized to protein concentration. (C) M2 cells were pretreated with 20 μM SC for 4 hours, followed by the addition of RS in the presence or absence of SC as described above. After 8 days, total RNA was isolated and analyzed for osteocalcin (Osc) and 18S rRNA expression by Northern blotting as previously described. Data from densitometric analysis of the Northern blot is shown in (D) as the average of duplicate samples, normalized to 18S rRNA. (E) M2 cells at confluence were pretreated for 2 hours with control vehicle (C), or PLA2 inhibitors ACA (25 μM) and AACOCF3 (AAC, 20 μM), in osteogenic medium. […] After 3 days, ALP activity was measured as previously described. […]

Where [3] appears, read: individual oxysterols 0.5-10 μM or combinations, up to 14 days.
Setting [4] is: individual oxysterols 0.5-10 μM up to 14 days, combinations 5 μM each, 4 and 8 days.

Structures are written as SMILES.

For `CC(C)CCC[C@](C)(O)[C@H]1CC[C@H]2[C@@H]3CC=C4C[C@@H](O)CC[C@]4(C)[C@H]3CC[C@@]21C` [20S, 20(S)-hydroxycholesterol], the induction of mineralization entry in test [1] (setting [3]) is given as “unable to induce”. The “induction of osteocalcin gene expression” value in test [2] (setting [4]) was “unable to induce”.

As to `CC(C)CC[C@@H](O)[C@@H](C)[C@H]1CC[C@H]2[C@@H]3CC=C4C[C@@H](O)CC[C@]4(C)[C@H]3CC[C@]12C` [22R, 22(R)-hydroxycholesterol], the induction of mineralization result in test [1] (setting [3]) is “unable to induce”. The “induction of osteocalcin gene expression” value in test [2] (setting [4]) is “unable to induce”.

Take `CC(C)CC[C@H](O)[C@@H](C)[C@H]1CC[C@H]2[C@@H]3CC=C4C[C@@H](O)CC[C@]4(C)[C@H]3CC[C@]12C` [22S, 22(S)-hydroxycholesterol]: the induction of mineralization result in test [1] (setting [3]) was “unable to induce”. Also, the “induction of osteocalcin gene expression” value in test [2] (setting [4]) is reported as “unable to induce”.

`O=S(=O)(c1ccccc1)N(CC(F)(F)F)c1ccc(C(O)(C(F)(F)F)C(F)(F)F)cc1` [TO, TO-901317]: the induction of mineralization entry in test [1] (TO treatment, after 10 days) is on record as “did not induce”. In test [2] (TO treatment, after 10 days), the “induction of osteocalcin gene expression” value is recorded as “did not induce”.

Source of the values: patent publication US7897588B2, “Agents and methods for enhancing bone formation” (The Regents of the University of California, priority 2003, dated 2011).
